Data taken from patent publication US20040248950A1, “Apo ai expression accelerating agent” (priority 2004, published 2004).

Assays:
[1] = test system: promoter region of the gene encoding human apoAI; assay: Activity to enhance the production of human apoAI: apoAI promoter-luciferase reporter assay in HepG2 cells; type: cell-based; details: minimum effective dose: concentration that intensified luciferase activity twice compared to control, 24 hours incubation, 0 to 10 μg/mL, read-out: MED
Method: Activity to Enhance the Production of Human apoAI
The promoter region of the gene encoding human apoAI was isolated and ligated upstream the structure gene of firefly luciferase to construct a reporter plasmid. The reporter plasmid and a marker plasmid conferring the neomycin resistance were co-infected to cell lines derived from human hepatoma, HepG2 cells, and the cell lines were incubated in a selection medium comprising DMEM medium containing 10% fetal calf serum supplemented with G418 (Final concentration: 0.7 mg/mL, Gibco) to give established strains that stably express the reporter molecule. The strains were seeded to a 96-well culture plates at a density of 50,000 cells per well, and incubated for 48 hours at 37° C. under 5% carbon dioxide. Then, a solution of the compounds according to the invention in DMSO was added to the wells at a final concentration of 0 to 10 μg/mL. After further incubation for 24 hours, the cells were added with a luciferase assay reagent (Piccagene LT 7.5 registered trade mark, Toyo Ink, KK), and the luciferase activity was determined using a luminometer (MicroBetaTM TRILUX, 1 sec/well, Wallac). The concentration of the compounds, which intensified the luciferase activity twice compared to that of control (DMSO without any compound of the invention added) was set as the minimal effective dose (MED).

Structure (SMILES)	EC (2-fold luciferase activity) [1] [µM]	melting point [°C]
c1ccc(Nc2nc(-c3ccccc3)ns2)cc1 [Compound 124TD35-6]	0.93	
Clc1ccc(-c2nnn(-c3ccc(Cl)cc3)n2)cc1 [TZ-4]	0.53	
CC(C)Oc1cccc(-c2nnc(-c3ccoc3)o2)c1 [Compound 134OD25-34]	1.5	
Cc1ccc(-c2csc(-c3ccccc3)n2)cc1 [TZ24-3]	0.45	
COc1ccc(-c2nc(-c3ccccc3)no2)cc1 [Compound 124OD35-12, 5-(4-Methoxyphenyl)-3-phenyl-1,2,4-oxadiazole]	0.07	
c1ccc(-c2nnc(-c3ccccn3)o2)cc1 [Compound 134OD25-46, 2-(2-Pyridyl)-5-phenyl-1,3,4-oxadiazole]	0.37	
Cc1ccc(-n2nnc(-c3ccccc3)n2)cc1 [TZ-3]	0.2	
COc1ccc(-c2nc(-c3ccccc3)co2)cc1 [OX24-5]	0.32	
c1ccc(-c2cn(-c3ccccc3)nn2)cc1 [Compound 123TA14-2]	0.59	
COc1ccc(-c2nc(-c3ccccc3)cs2)cc1 [TZ24-5, 2-(4-Methoxyphenyl)-4-phenylthiazole]	3.7	
COc1cccc(-c2nnc(N3CCOCC3)s2)c1 [Compound 134TD25-1]	0.89	
Cc1ccc(-c2nnn(-c3ccc(Cl)cc3)n2)cc1 [TZ-2]	0.42	
COc1ccc(-c2nc(-c3ccncc3)no2)cc1 [Compound 124OD35-13]	0.7	
c1ccc(-c2nc(-c3ccc(-c4csnn4)cc3)no2)cc1 [Compound 124OD35-15]	0.18	
CN(C)c1ccc(-c2nnc(-c3ccccc3)o2)cc1 [Compound 134OD25-15, 2-(4-Dimethylaminophenyl)-5-phenyl-1,3,4-oxadiazole]	0.27	135 to 140
Cc1cccc(-c2nnc(-c3cccc(C)c3)o2)c1 [Compound 134OD25-40, 2,5-Bis (3-tolyl)-1,3,4-oxadiazole]	0.17	82 to 83

Structure (SMILES)	EC (2-fold luciferase activity) [1] [µM]	melting point [°C]
c1ccc(-c2cc(-c3ccccc3)on2)cc1 [IX35-1]	0.75	
Cc1ccc(-c2nnc(-c3ccco3)s2)cc1 [Compound 134TD25-5, 2-(2-Furyl)-5-p-tolyl-[1,3,4]-thiadiazole]	0.98	110 to 113
COc1ccc(-c2nc(-c3ccco3)cs2)cc1 [TZ24-6, 4-(2-Furyl)-2-(4-methoxyphenyl)thiazole]	1.2	
c1ccc(-c2cc(-c3ccccn3)[nH]n2)nc1 [PZ35-5]	1.5	
COc1cccc(-c2cc(-c3ccoc3)on2)c1 [IX35-9, 5-(Furan-3-yl)-3-(3-methoxyphenyl)-isoxazole]	0.53	36 to 37
CSc1ccc(-c2nnc(-c3ccccc3)o2)cc1 [Compound 134OD25-14]	0.56	120 to 122
COc1ccc(-n2nnc(-c3ccccc3)n2)cc1 [TZ-7]	0.22	
c1ccc(-c2nnc(-c3cc4ccccc4o3)o2)cc1 [Compound 134OD25-28]	1.1	148 to 149
CC(C)Oc1cccc(-c2nnc(-c3ccoc3)s2)c1 [Compound 134TD25-4]	0.58	
c1ccc(-c2ccc(-c3ccccc3)o2)cc1 [Compound F25-10]	2.5	
Cc1ccc(-n2nnc(-c3ccc(Cl)cc3)n2)cc1 [TZ-1]	0.33	
COc1ccc(-c2nc(-c3ccccn3)cs2)cc1 [TZ24-11]	1.2	
C(=C\c1nnc(-c2ccccc2)o1)/c1ccco1 [Compound 134OD25-23, 2-[2-(2-Furyl)vinyl]-5-[1,3,4]-oxadiazole]	0.82	127 to 130
COc1ccc(-c2cc(-c3ccc(OC)cc3)n(C)n2)cc1 [PZ35-4, 3,5-Di(4-methoxyphenyl)-1-methylpyrazole]	0.41	
c1ccc(-c2coc(-c3ccccc3)n2)cc1 [OX24-8]	2.9	
COc1cccc(-c2nnc(-c3ccoc3)o2)c1 [Compound 134OD25-32, 2-(3-Furyl)-5-(3-methoxyphenyl)-[1,3,4]-oxadiazole]	2.8	70 to 71
